Experiments:
[1] = tested on: mice with induced myocardial infarction; assay: Post-MI chronic heart failure in mice, echocardiography; type: in vivo
Description: The purpose of this experiment is to study the effect of vibegron on structural remodeling (e.g., hypertrophy and/or fibrosis) and functional remodeling (e.g, ventricular function) in mice with chronic HF after a myocardial infarction (MI). The specific aims of these studies will be to determine the dose response treatment effects on cardiac remodeling by measuring parameters of cardiac structure and function using non-invasive, invasive, morphological, and histological assessments of mice after MI.
Myocardial infarction in the mouse is a commonly used experimental model for chronic ischemic heart failure. Due to complete ligation of the left anterior descending coronary artery, there is a large left ventricular infarct that produces adverse LV remodeling and significant dysfunction within 2 weeks post-MI. There also is significant fibrosis in this model and it is robust and reproducible with low mortality due to the surgical procedure. This model has been used for over 2 decades (see, e.g., Gao, E. et al., Circulation Research, 2010; 107: 1445-1453) and has been used to test potential novel HF therapeutics (Schumacher, S. et al. Science Translational Medicine, 2015; 7: 277).
Myocardial infarction was induced in 10-12 week C57B/6 wild-type mice and after 2 weeks echo cardiograms were used to assess the MI severity in each mouse. Mice were randomized for treatment based on similarity and severity of the induced infarct. The mice were started with either vibegron or vehicle (1-3 doses) administered by continuous infusion using 2 week minipumps (Azlet Corp.) that were filled with the appropriate dose and implanted subcutaneously on the back of each animal in the region of the scapula. The minipumps were replaced with new minipumps in the same location at the 2 week time point and dosed for 4 weeks in total. Cardiac function was assessed by echocardiography (Echo) at 0, 2, 4, and 6 weeks. Some mice were subjected to terminal catheterization to measure hemodynamic pressures and adrenergic responsiveness.
Sham surgery groups treated with vehicle and highest dose of vibegron were included as controls. One group of post-MI mice treated with vehicle was also included in the study as a control. Two groupings of the 6 conditions were tested to allow for multiple replicates. There were 7 to 8 mice per condition in each group. The 2 groups studied were staggered by 3-4 weeks.
At this point, 6 experimental conditions (A-F below)×2 groups (staggered for reproducibility) were tested. Vibegron was provided in a form dissolved and delivered via an osmotic minipump placed under the skin of the mouse. The vehicle was used for negative control animals. Three (3) doses of vibegron (low, medium and high) were tested.
• A. Sham—vehicle • B. Sham—vibegron (high dose) • C. MI—vehicle • D. MI—vibegron—low dose • E. MI—vibegron—medium dose • F. MI—vibegron—high dose Group 2 (7 or 8 Mice Per Group) Repeated 3-4 Weeks after Group 1 • A. Sham—vehicle • B. Sham—vibegron (high dose) • C. MI—vehicle • D. MI—vibegron—low dose • E. MI—vibegron—medium dose • F. MI—vibegron—high dose
• 1. Day 0 (after 1-2 weeks acclimation)—pre-surgery Echo • 2. Perform LAD Ligation (MI) or Sham procedure • 3. Day 14—Echo and randomly assign groups • 4. Day 14—begin administration of vehicle and drug for 4 weeks • 5. Day 28—Echo (operator blinded to groups)—change pumps for another 2 week dosing • 6. Day 42—Echo (operator blinded to groups) • 7. Day 42—Some were used for hemodynamics and ISO dose response and all animals sacrificed. Some were used for histology and some for RNA/Protein analysis. Blood was also collected at the time of sacrifice to determine serum concentrations.
Surgical Methods: As described in Gao, E. et al., Circulation Research, 2010; 107: 1445-1453 and Schumacher, S. et al. Science Translational Medicine, 2015; 7: 277, mice were anesthetized and complete ligation of the LAD was performed through a partial thoracotomy.

β1-adrenergic receptor = target: T1, β1-adrenergic receptor (Homo sapiens, UniProt P08588); assay: Functional cellular cAMP (HTRF) assay, CHO cells expressing β1-ARs; type: cell-based; conditions: relative to isoproterenol
T1 construct: expressed in transfected cells; host or cells: CHO
Method: The potency and maximal effect of vibegron and mirabegron for β3-adrenergic receptors and the selectivity for each […] receptor were determined. Functional cellular assays for vibegron and mirabegron activity were performed using Chinese hamster ovary (CHO) cells expressing β1- or β2-ARs and human embryonic kidney (HEK) 293 cells expressing β3-ARs. Cells were incubated with vibegron, mirabegron, or the appropriate control (isoproterenol for β1 and β3, procaterol for β2). Responses were quantified using homogeneous time-resolved fluorescence of cyclic adenosine monophosphate. Half-maximal effective concentration (EC50) and maximum response (Emax) values were determined by nonlinear least-squares regression analysis.

[2] = MI mice, high dose (10 mg/kg), Baseline (pre-surgery)
[3] = MI mice, high dose (10 mg/kg), Week 2 (before start of dosing)
[4] = MI mice, high dose (10 mg/kg), Week 4 (2 weeks after dosing)
[5] = MI mice, high dose (10 mg/kg), Week 6 (4 weeks of treatment)
[6] = MI mice, low dose (1 mg/kg), Baseline (pre-surgery)
[7] = MI mice, low dose (1 mg/kg), Week 2 (before start of dosing)
[8] = MI mice, low dose (1 mg/kg), Week 4 (2 weeks after dosing)
[9] = MI mice, low dose (1 mg/kg), Week 6 (4 weeks of treatment)
[10] = MI mice, medium dose (3 mg/kg), Baseline (pre-surgery)
[11] = MI mice, medium dose (3 mg/kg), Week 2 (before start of dosing)
[12] = MI mice, medium dose (3 mg/kg), Week 4 (2 weeks after dosing)
[13] = MI mice, medium dose (3 mg/kg), Week 6 (4 weeks of treatment)
[14] = sham mice, high dose (10 mg/kg), Baseline (pre-surgery)
[15] = sham mice, high dose (10 mg/kg), Week 2 (before start of dosing)
[16] = sham mice, high dose (10 mg/kg), Week 4 (2 weeks after dosing)
[17] = sham mice, high dose (10 mg/kg), Week 6 (4 weeks of treatment)

T1 sequence (P08588 whole entry): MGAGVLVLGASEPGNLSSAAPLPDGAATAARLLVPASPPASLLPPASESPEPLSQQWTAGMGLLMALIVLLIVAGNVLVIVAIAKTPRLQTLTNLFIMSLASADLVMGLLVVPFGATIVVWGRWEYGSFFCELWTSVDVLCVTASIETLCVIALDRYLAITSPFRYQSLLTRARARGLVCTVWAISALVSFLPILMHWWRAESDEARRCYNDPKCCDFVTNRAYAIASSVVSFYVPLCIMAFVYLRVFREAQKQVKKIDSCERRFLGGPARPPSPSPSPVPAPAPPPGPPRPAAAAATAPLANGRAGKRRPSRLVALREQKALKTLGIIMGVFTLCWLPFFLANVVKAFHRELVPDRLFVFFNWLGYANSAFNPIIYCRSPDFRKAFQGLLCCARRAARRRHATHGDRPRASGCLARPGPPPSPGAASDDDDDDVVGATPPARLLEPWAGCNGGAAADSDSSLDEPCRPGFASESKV

O=C(Nc1ccc(C[C@@H]2CC[C@H]([C@H](O)c3ccccc3)N2)cc1)[C@@H]1CCc2nccc(=O)n21 [Vibegron, (6S)—N-[4-[[(2S,5R)-5-[(R)-hydroxy(phenyl)methyl]pyrrolidin-2-yl]methyl]phenyl]-4-oxo-7,8-dihydro-6H-pyrrolo[1,2-a]pyrimidine-6-carboxamide]
Average % Ejection Fraction [1, 2]: 62.06% | Average % Fractional Shortening [1, 2]: 32.99% | Cardiac Output [1, 2]: 20.56 mL/min | Stroke Volume [1, 2]: 43.30 µL | Average % Ejection Fraction [1, 3]: 38.39% | Average % Fractional Shortening [1, 3]: 18.91% | Cardiac Output [1, 3]: 18.93 mL/min | Stroke Volume [1, 3]: 40.79 µL | Average % Ejection Fraction [1, 4]: 42.59% | Average % Fractional Shortening [1, 4]: 21.61% | Cardiac Output [1, 4]: 23.29 mL/min | Cardiac Output % Improvement Relative to Vehicle [1, 4]: 37.40% | Stroke Volume [1, 4]: 46.83 µL | Stroke Volume % Improvement Relative to Vehicle [1, 4]: 40.84% | Average % Ejection Fraction [1, 5]: 42.68% | Average % Fractional Shortening [1, 5]: 21.76% | Cardiac Output [1, 5]: 25.09 mL/min | Cardiac Output % Improvement Relative to Vehicle [1, 5]: 61.35% | Stroke Volume [1, 5]: 47.22 µL | Stroke Volume % Improvement Relative to Vehicle [1, 5]: 57.87% | Average % Ejection Fraction [1, 6]: 59.50% | Average % Fractional Shortening [1, 6]: 31.22% | Cardiac Output [1, 6]: 20.00 mL/min | Stroke Volume [1, 6]: 42.74 µL | Average % Ejection Fraction [1, 7]: 37.52% | Average % Fractional Shortening [1, 7]: 18.44% | Cardiac Output [1, 7]: 18.06 mL/min | Stroke Volume [1, 7]: 39.30 µL | Average % Ejection Fraction [1, 8]: 29.77% | Average % Fractional Shortening [1, 8]: 14.29% | Cardiac Output [1, 8]: 15.45 mL/min | Stroke Volume [1, 8]: 32.76 µL | Average % Ejection Fraction [1, 9]: 31.64% | Average % Fractional Shortening [1, 9]: 15.21% | Cardiac Output [1, 9]: 19.19 mL/min | Cardiac Output % Improvement Relative to Vehicle [1, 9]: 23.40% | Stroke Volume [1, 9]: 37.54 µL | Stroke Volume % Improvement Relative to Vehicle [1, 9]: 25.51% | Average % Ejection Fraction [1, 10]: 58.11% | Average % Fractional Shortening [1, 10]: 30.07% | Cardiac Output [1, 10]: 21.05 mL/min | Stroke Volume [1, 10]: 44.72 µL | Average % Ejection Fraction [1, 11]: 37.18% | Average % Fractional Shortening [1, 11]: 18.14% | Cardiac Output [1, 11]: 18.94 mL/min | Stroke Volume [1, 11]: 40.37 µL | Average % Ejection Fraction [1, 12]: 35.95% | Average % Fractional Shortening [1, 12]: 17.57% | Cardiac Output [1, 12]: 19.51 mL/min | Cardiac Output % Improvement Relative to Vehicle [1, 12]: 15.10% | Stroke Volume [1, 12]: 39.00 µL | Stroke Volume % Improvement Relative to Vehicle [1, 12]: 17.29% | Average % Ejection Fraction [1, 13]: 35.55% | Average % Fractional Shortening [1, 13]: 17.36% | Cardiac Output [1, 13]: 20.90 mL/min | Cardiac Output % Improvement Relative to Vehicle [1, 13]: 34.41% | Stroke Volume [1, 13]: 41.69 µL | Stroke Volume % Improvement Relative to Vehicle [1, 13]: 39.38% | Onset of action ([1]; after initiation of treatment, as shown in the examples): ≤ 2 weeks | Adverse effects in healthy hearts (echocardiographic function versus baseline) ([1]; sham mice, high dose): no adverse effects | Average % Ejection Fraction [1, 14]: 59.04% | Average % Fractional Shortening [1, 14]: 30.87% | Cardiac Output [1, 14]: 22.09 mL/min | Stroke Volume [1, 14]: 42.25 µL | Average % Ejection Fraction [1, 15]: 62.36% | Average % Fractional Shortening [1, 15]: 33.26% | Cardiac Output [1, 15]: 23.72 mL/min | Stroke Volume [1, 15]: 45.57 µL | Average % Ejection Fraction [1, 16]: 61.08% | Average % Fractional Shortening [1, 16]: 32.32% | Cardiac Output [1, 16]: 22.53 mL/min | Stroke Volume [1, 16]: 44.44 µL | Average % Ejection Fraction [1, 17]: 61.18% | Average % Fractional Shortening [1, 17]: 32.45% | Cardiac Output [1, 17]: 23.63 mL/min | Stroke Volume [1, 17]: 45.97 µL | β1-adrenergic activity (% Activity) (β1-adrenergic receptor): 0%

— patent publication US20260224577A1, “METHODS OF TREATING HEART FAILURE WITH VIBEGRON” (SUMITOMO PHARMA CO., LTD., priority 2021, published 2026)
